# Measurements published in patent US11738065B2, “Polypeptides and analogues thereof for use in the treatment of diabetes and bone disorders” (UNIVERSITY OF ULSTER, priority 2015, dated 2023).
# Where a SMILES comes first, the peptide text is derived from it. [ ]: non-standard residue; d: D form.
# Experiments:
# purified porcine DPP-4 = target: T1, purified porcine DPP-4 (Sus scrofa, UniProt P22411); test: DPP-4 degradation / in vitro DPP-4 half-life; format: in vitro ADME; conditions: incubated in the presence of DPP-4 for up to 12 hs
# T1 construct: purchased Sigma-Aldrich, Dorset, UK
# Procedure: (§1) For calculation of experimental molecular masses, peptide samples (1 μg) were mixed with α-cyano-4-hydroxycinnamic acid (1 μg) and applied to a Voyager-DE BioSpectrometry Workstation and mass-to-charge (m/z) ratio verses peak intensity recorded by MALDI-TOF mass spectrometry. […] Degradation profiles were obtained using rp-HPLC analysis and HPLC peak area data used to calculate percentage intact peptide remaining at each time point.
# (§2) Briefly, polypeptides (20 μg) were incubated with 5 μl of purified DPP-4 (5 mU, Sigma-Aldrich, Dorset, UK) in 50 mM TEA-HCl (pH 7.8; final volume 450 μl) at 37° C. for 0, 1, 4 and 12 hours. Enzymatic reactions were terminated by the addition of 50 μl TFA/H2O (10% v/v, Sigma-Aldrich, Dorset, UK). Reaction products were then separated by HPLC and analysed using MALDI-TOF.
# DPP-4 = target: T2, DPP-4 (Sus scrofa, UniProt P22411); test: DPP-4 degradation / in vitro DPP-4 half-life; format: in vitro ADME, porcine; conditions: pig; 37° C., 50 mmol/L TEA-HCl pH 7.8, 5 mU purified porcine DPP-4, 0-12 h
# T2 construct: purchased Sigma-Aldrich, Dorset, UK
# Procedure: as §1, §2
# lean control mice [1] = test: Acute food intake in lean control mice; format: in vivo; conditions: 250 nmol/kg i.p.
# Procedure: Acute animal studies were conducted in male NIH Swiss mice (12-14 weeks old, Harlan Ltd, UK) maintained on a standard rodent maintenance diet (10% fat, 30% protein and 60% carbohydrate, Trouw Nutrition, Cheshire, UK). […] All animals were housed individually in an air-conditioned room at 22±2° C. with a 12 h light:12 h dark cycle and had free access to food and water. All animal experiments were carried out in accordance with the UK Animals (Scientific Procedures) Act 1986.
# BRIN-BD11 cells = test: In vitro insulin secretion from BRIN-BD11 cells; format: cell-based; conditions: 20 min; for Insulin secretion from BRIN-BD11 cells: 10^−6 mol/l peptide, vs 5.6 and 16.7 mmol/l glucose control
# Procedure: BRIN-BD11 cells were used to assess the insulin releasing activity of polypeptides as described by […] et al., 1996 (Diabetes. 1996 August; 45(8):1132-40). Cells were cultured in RPMI-1640 growth media supplemented with 10% (v/v) foetal bovine serum (FBS) and 1% (v/v) antibiotics (penicillin (100 U/ml), streptomycin ([…])), in 75 cm2 sterile tissue culture flasks (Greiner bio-one, UK) maintained at 37° C. and 5% CO2 in a LEEC incubator (Laboratory technical engineering, Nottingham, UK). BRIN-BD11 cells were then seeded at a density of 150,000 cells/well in 24-well plates (Nunc, Roskilde, Denmark) and allowed to attach overnight at 37° C.
# lean control mice [2] = test: Acute and persistent glucose lowering and insulin releasing effects in lean control mice; format: in vivo
# Procedure: All animal experiments were carried out in accordance with the UK Animals (Scientific Procedures) Act 1986. For food intake studies, fasted (18 h) mice were given intraperitoneal (i.p) injections of polypeptides at a dose of 25, 100 or 250 nmol/kg bw. Mice were then allowed free access to normal chow for 180 mins and cumulative food intake measured. […] Blood samples were collected from the cut tip on the tail vein of conscious mice into chilled fluoride/heparin glucose micro-centrifuge tubes (Sarstedt, Numbrecht, Germany) at the time points indicated in the Drawings. Blood glucose was measured directly using a hand-held Ascencia Contour blood glucose meter (Bayer Healthcare, Newbury, Berkshire, UK).
# T2 sequence (P22411 whole entry): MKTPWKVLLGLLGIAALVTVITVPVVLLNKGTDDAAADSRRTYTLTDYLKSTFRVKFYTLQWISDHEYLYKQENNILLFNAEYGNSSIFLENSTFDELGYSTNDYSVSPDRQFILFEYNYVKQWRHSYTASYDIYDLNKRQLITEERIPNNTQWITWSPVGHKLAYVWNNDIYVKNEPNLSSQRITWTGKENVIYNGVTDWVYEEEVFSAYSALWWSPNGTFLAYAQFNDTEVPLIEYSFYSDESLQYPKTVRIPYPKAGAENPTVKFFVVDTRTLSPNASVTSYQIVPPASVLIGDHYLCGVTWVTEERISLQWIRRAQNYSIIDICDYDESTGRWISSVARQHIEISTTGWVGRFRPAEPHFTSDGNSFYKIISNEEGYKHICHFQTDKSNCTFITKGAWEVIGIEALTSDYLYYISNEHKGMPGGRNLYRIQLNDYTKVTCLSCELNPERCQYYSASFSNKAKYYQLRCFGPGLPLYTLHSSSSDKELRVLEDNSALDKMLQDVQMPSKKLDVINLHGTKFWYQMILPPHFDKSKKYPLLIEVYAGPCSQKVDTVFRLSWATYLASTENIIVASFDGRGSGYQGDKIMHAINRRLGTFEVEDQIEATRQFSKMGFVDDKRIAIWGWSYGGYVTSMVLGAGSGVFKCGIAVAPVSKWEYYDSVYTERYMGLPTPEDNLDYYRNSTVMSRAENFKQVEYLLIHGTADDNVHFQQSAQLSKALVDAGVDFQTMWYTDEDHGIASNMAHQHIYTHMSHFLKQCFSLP
# T1 sequence (P22411 whole entry): as above
molecule,measurement,setting,value
"CC[C@H](C)[C@H](NC(=O)[C@H](CO)NC(=O)[C@H](Cc1ccc(O)cc1)NC(=O)[C@H](CC(=O)O)NC(=O)[C@H](CO)NC(=O)[C@@H](NC(=O)[C@H](Cc1ccccc1)NC(=O)[C@@H](NC(=O)CNC(=O)[C@H](CCC(=O)O)NC(=O)[C@@H](C)NC(=O)[C@@H](N)Cc1ccc(O)cc1)[C@@H](C)O)[C@@H](C)CC)C(=O)N[C@@H](C)C(=O)N[C@@H](CCSC)C(=O)N[C@@H](Cc1c[nH]cn1)C(=O)N1CCC[C@H]1C(=O)N[C@@H](CCC(N)=O)C(=O)N[C@@H](CCC(N)=O)C(=O)N1CCC[C@H]1C(=O)N[C@@H](Cc1c[nH]c2ccccc12)C(=O)N[C@H](C(=O)N[C@@H](CC(C)C)C(=O)O)[C@@H](C)CC [(DAla2)GIP/xenin-8-Gln, TYR-(d)ALA-GLU-GLY-THR-PHE-ILE-SER-ASP-TYR-SER-ILE-ALA-MET-HIS-PRO-GLN-GLN-PRO-TRP-ILE-LEU] (H-Y[dA]EGTFISDYSIAMHPQQPWIL-OH; N-terminus and C-terminus assumed)",Intactness on incubation with DPP-4,purified porcine DPP-4,remained fully intact
same,half-life at 44.4 µg/mL,DPP-4,> 720 min
HIS-PRO-GLN-GLN-PRO-TRP-ILE-LEU (HPQQPWIL; listed as Homo sapiens) [xenin-8-Gln],Cumulative food intake at 120 min post-injection,lean control mice [1],significant (P<0.05) reductions in cumulative food intake
same,Insulin secretion from BRIN-BD11 cells,BRIN-BD11 cells,significantly (P<0.05 to P<0.001) stimulated insulin secretion
same,"Glucose lowering or insulin releasing effects, peptide 4 h prior to glucose load",lean control mice [2]; 25 nmol/kg 4 h before glucose 18 mmol/kg,devoid of any beneficial glucose lowering or insulin releasing effects
same,Blood glucose at 30 min post injection,"lean control mice [2]; 25 nmol/kg with glucose 18 mmol/kg i.p., non-fasted mice, vs glucose alone",significantly (P<0.05) lowered blood glucose values
same,Overall 0-105 min AUC blood glucose,"lean control mice [2]; 25 nmol/kg with glucose 18 mmol/kg i.p., vs glucose alone",significantly (P<0.05) decreased
"MET-LEU-THR-LYS-PHE-GLU-THR-LYS-SER-ALA-ARG-VAL-LYS-GLY-LEU-SER-PHE-HIS-PRO-LYS-ARG-PRO-TRP-ILE-LEU (MLTKFETKSARVKGLSFHPKRPWIL; listed as Homo sapiens) [xenin, reference compound]",Appetite suppressive effect at 90 min post-injection,lean control mice [1]; vs control,significantly (P<0.05) superior to control mice
same,Insulin secretion from BRIN-BD11 cells,BRIN-BD11 cells,significantly (P<0.05 to P<0.001) stimulated insulin secretion
HIS-PRO-GLN-GLN-PRO-TRP-ILE-LEU-GLY-ALA-ALA-GLU-GLU-GLU-GLU-GLU-GLU (HPQQPWILGAAEEEEEE; listed as Homo sapiens) [GIP(L-Glu)],Insulin secretory effect in BRIN BD11 beta-cells of C-terminally modified peptide,"BRIN-BD11 cells; 10^−12-10^−6 M, vs 5.6 mM glucose alone",does not hinder biological activity at the cellular level
"HIS-PRO-LYS-ARG-PRO-TRP-ILE-LEU (HPKRPWIL; listed as Homo sapiens) [xenin-8, reference compound]",Insulin secretion from BRIN-BD11 cells,BRIN-BD11 cells,significantly (P<0.05 to P<0.001) stimulated insulin secretion
"CC[C@H](C)[C@H](NC(=O)[C@H](CO)NC(=O)[C@H](Cc1ccc(O)cc1)NC(=O)[C@H](CC(=O)O)NC(=O)[C@H](CO)NC(=O)[C@@H](NC(=O)[C@H](Cc1ccccc1)NC(=O)[C@@H](NC(=O)CNC(=O)[C@H](CCC(=O)O)NC(=O)[C@H](C)NC(=O)[C@@H](N)Cc1ccc(O)cc1)[C@@H](C)O)[C@@H](C)CC)C(=O)N[C@@H](C)C(=O)N[C@@H](CCSC)C(=O)N[C@@H](CC(=O)O)C(=O)N[C@@H](CCCCN)C(=O)N[C@H](C(=O)N[C@@H](Cc1c[nH]cn1)C(=O)N[C@@H](CCC(N)=O)C(=O)N[C@@H](CCC(N)=O)C(=O)N[C@@H](CC(=O)O)C(=O)N[C@@H](Cc1ccccc1)C(=O)N[C@H](C(=O)N[C@@H](CC(N)=O)C(=O)N[C@@H](Cc1c[nH]c2ccccc12)C(=O)N[C@@H](CC(C)C)C(=O)N[C@@H](CC(C)C)C(=O)N[C@@H](C)C(=O)N[C@@H](CCC(N)=O)C(=O)N[C@@H](CCCCN)C(=O)NCC(=O)N[C@@H](CCCCN)C(=O)N[C@@H](CCCCN)C(=O)N[C@@H](CC(N)=O)C(=O)N[C@@H](CC(=O)O)C(=O)N[C@@H](Cc1c[nH]c2ccccc12)C(=O)N[C@@H](CCCCN)C(=O)N[C@@H](Cc1c[nH]cn1)C(=O)N[C@@H](CC(N)=O)C(=O)N[C@H](C(=O)N[C@H](C(=O)N[C@@H](CCC(N)=O)C(=O)O)[C@@H](C)O)[C@@H](C)CC)C(C)C)[C@@H](C)CC [Native GIP, reference compound]",half-life at 44.4 µg/mL,DPP-4,< 60 min
